Measured values: a melting point compilation (Tetko et al.; mined from patent text by program, amines drawn as free bases though some values may be those of a salt)
Residues, ends and D or L forms follow the SMILES beside them.

| Structure (SMILES) | melting point [°C] |
| --- | --- |
| O=C(Nc1cccnn1)N1CCN(c2nccc(-c3cccc(F)c3)n2)CC1 | 238 to 239 |
| COC(=O)c1ccccc1OCC(O)CNC(C)(C)CNC(N)=O (stereo not drawn) | 62 |
| CCOC(=O)c1ccc(NCCCCc2cccs2)cc1 | 63 to 65 |
| CCS(=O)(=O)c1ccc(C(CC2CCCC2)C(=O)Nc2nccs2)cc1 (stereo not drawn) | 178 to 179 |
| CN1CCN(c2cc3c(cc2F)C(=O)c2nc4ccccc4c(=O)n2-3)CC1 | 257 to 258 |
| NC(=O)CNC(=O)[C@@H]1CCCN1 (H-Pro-Gly-NH2) | 124 to 127 |
| COCC(=S)Nc1c(Cl)c(C)cc2nc(OC)c(OC)nc12 | 174 to 176 |
| O=S(=O)(c1ccccc1)n1ccc2c(OCCCl)cccc21 | 85 to 87 |
| CC(=O)NC(C)c1ccc(CN2CCN(c3ncccn3)CC2)cc1 (stereo not drawn) | 124 to 126 |
| CNc1cc(CCN)ccc1OC | 90 to 92 |
| CC(C)N1C(=O)NC(c2ccc3c(c2)CCO3)c2cc3c(cc21)OCO3 (stereo not drawn) | 183 to 185 |
| CC(C)(C)ONc1ccccc1 | 67 to 69 |
| CONC(=O)N1N=C(c2ccc([N+](=O)[O-])c(C)c2)c2cc3c(cc2CC1C)OCO3 (stereo not drawn) | 192 to 195 |
| C=CC(=O)NC(=O)NCCS(=O)(=O)C=C | 177 to 179 |
| Cc1nnc(NCCN2CCN(c3ncccn3)CC2)c2cc3ccccn3c12 | 280 to 283 |
| CC(=O)C1=C(CS(=O)c2ccccc2)CC2C3CCC4=CC(=O)CCC4(C)C3=CCC12C (stereo not drawn) | 160 to 163 |
| COC12CC(C)(c3nc(-c4cncc(Br)c4)no3)CN(C)C1Cc1cn(C)c3cccc2c13 (stereo not drawn) | 185 to 189 |
| COC(=O)c1sc2ccccc2c1NC(C)=O | 178 to 180 |
| CC(=O)SCC(Cc1ccccc1)C(=O)NC(CCCNC(=N)N)C(=O)O (stereo not drawn) | 253 to 295 |
| CN(O)C(=O)Cc1ccccc1Nc1c(Cl)cccc1Cl | 135 to 138 |

| Structure (SMILES) | melting point [°C] |
| --- | --- |
| CC(C)c1ccc(C(Cl)=NOS(C)(=O)=O)cc1 | 79.5 to 82 |
| CN(C)S(=O)(=O)c1ccc2c(C=O)c[nH]c2c1 | 250 to 252 |
| N#Cc1ccc(NC(=O)OCc2cccnc2)cc1 | 205 to 207 |
| NS(=O)(=O)c1cc2c(cc1Cl)NC(CCCCCO)NS2(=O)=O (stereo not drawn) | 190 |
| COC(=O)[C@H](Cc1ccc(CC(=O)O)c(C2SCCS2)c1)NC(C)=O | 113 to 119 |
| CCc1cncnc1Nc1ccc(C(=O)CCC2CCN(Cc3ccccc3)CC2)cc1 | 136 to 138 |
| CCOC(=O)c1cn(-c2ccc(F)cc2F)c2nc(N3CCC(N)C3)c(F)cc2c1=O (stereo not drawn) | 200 to 202 |
| CCC(Oc1cc(C)ccc1C)C(=O)OC1CC(O)C=C2C=CC(C)C(CCC3CC(O)CC(=O)O3)C21 (mixture of isomers) | 138 to 140 |
| C=CCOn1c(=O)c2cc(F)c(N3CCCC3)cc2n(Cc2ccccc2)c1=O | 148 to 150 |
| Nc1ccc(OC(F)(F)F)cc1CO | 75.9 to 77.6 |
| O=C(c1ccccc1)c1cc(Cl)ccc1-n1cnnc1CN1C(=O)c2ccccc2C1=O | 229 to 230 |
| N=C(N)c1ccncc1 | 136 to 140 |
| CCC(=O)Nc1c(C#N)cnn1-c1c(Cl)cc(Cl)c(Cl)c1Cl | 203 to 204 |
| CCCCCCCCCC(=O)c1ccc(O)c(C(=O)O)c1 | 118 to 119 |
| C=Cc1ccc2c(c1)C[C@H](C(=O)N1CCC[C@H](C)C1)N2c1cccnn1 | 206 to 209 |
| CC(=O)OC(C)c1ccc2occ(-c3nnn[nH]3)c(=O)c2c1 (stereo not drawn) | 231 to 232 |
| CC=CCN(CCC12CC3CC(CC(C3)C1)C2)C(=O)NCCCc1ccncc1 | 89.5 to 93.5 |
| Cc1[nH]c(=O)[nH]c1C(=O)c1ccco1 | 214 to 216 |
| CCC(=O)Nc1cc(F)ccc1C(=O)O | 170 to 171 |
| Cc1cc2ccncc2c(=O)c2ccccc12 | 112 to 116 |

| Structure (SMILES) | melting point [°C] |
| --- | --- |
| O=C(NCCO)c1ccc(NS(=O)(=O)c2ccc(F)cc2)cn1 | 144 to 146 |
| Cc1nc2c(N[C@@H]3c4ccccc4C[C@H]3O)cc(C(=O)O)cn2c1C (relative stereo) | 246 to 249 |
| O=C(CCl)Nc1ccc2c(c1NC(=O)C1CCCCC1)C(=O)c1ccccc1C2=O | 216 to 217 |
| COc1cc(C=O)ccn1 | 33 to 35 |
| CC12CCC(=O)C=C1CCN(C(=O)OCc1ccccc1)C2 (stereo not drawn) | 128 |
| CC(C)(C)NCC(O)COc1ccccc1Cc1cccc2[nH]ccc12 (stereo not drawn) | 78 |
| CCNC(=O)Cc1cccc([N+](=O)[O-])c1 | 115 to 117 |
| CCN(CC)C(=O)n1ccc(Sc2ccc(Cl)cc2Cl)n1 | 96 to 97 |
| CCCc1c(C(=O)C(C)C)c2ccc(C(=O)O)cc2n1Cc1ccccc1C | 186 to 188 |
| CN(c1cccc2cc(C3=NCC(CN4CCOCC4)S3)[nH]c12)S(=O)(=O)c1cccnc1 (stereo not drawn) | 234 to 236 |
| COC(=O)C(O)c1ccccc1[N+](=O)[O-] (stereo not drawn) | 69 to 71 |
| C=C1C2=C(CCCC2)C(=O)N1c1ccc(Cl)cc1F | 84 to 85.5 |
| CCCCc1ccc(NCC)c(C(=O)C(=O)OC(=O)C(=O)c2cc(CCCC)ccc2NCC)c1 | 130 to 132 |
| CCN(CC)c1ccncc1NC(=S)NC1CCCCC1 | 119 to 121 |
| CC(C)(C)OC(=O)CC[C@H](NC(=O)c1ccc(NCc2ccccc2)c(F)c1)C(=O)OC(C)(C)C | 80 to 82 |
| Nc1ncc(C#Cc2ccc(Cl)cc2)c(N2CCOCC2)n1 | 193 to 194 |
| CN(c1cccc2cc(C3=NCC(CN4CCOCC4)S3)[nH]c12)S(=O)(=O)c1cccs1 (stereo not drawn) | 139 to 140 |
| N#Cc1cc([N+](=O)[O-])ccc1Sc1ccccc1 | 82 to 84 |

Next, values leading:

| melting point [°C] | Structure (SMILES) |
| --- | --- |
| 101 to 104 | CC(C)c1nc(C2CCCCC2)cc(-c2ccc(F)cc2)c1CO |
| 156 to 158 | O=C1Nc2ccc(C(F)(F)F)cc2C1(O)c1cc(Cl)ccc1O (stereo not drawn) |
| 179 to 181 | COc1ccc(-c2nc(Sc3ccc(C(F)(F)F)cc3)[nH]c2-c2ccc(OC)cc2)cc1 |
| 134 to 137 | CCc1ccc(Cc2cc(C(=O)OC)ccc2O)cc1 |
| 90.5 to 92.3 | CC(=O)NC[C@H]1CN(c2ccc(-n3nccc3-c3cccc(Br)n3)c(F)c2)C(=O)O1 |
| 155 to 158 | COc1cc(CN2Cc3cc(OC)c(O)cc3CC2C)cc(OC)c1 (stereo not drawn) |
| 161 to 163 | Cc1nc(-c2ccc(C(F)(F)F)cc2)sc1CSc1cc(C(C)C)c(OCC(=O)O)c(C(C)C)c1 |
| 133 | COc1ccc(S(=O)(=O)C2(C(=O)O)CCCN(Cc3ccccc3)C2)cc1 (stereo not drawn) |
| 75 to 76 | O=C(C(=O)c1ccc(Oc2cccc(Br)c2)cc1)c1ccccc1 |
| 189 to 190 | COC(Nc1ccccc1)(OC)C1(Br)C=CN=C(C(=O)c2ccccc2)C1 (stereo not drawn) |
| 155 | COC(=O)c1sc2c(C(F)(F)F)cccc2c1C1CCN(C(C)=O)CC1 |
| 220 to 222 | Oc1ccc2c(c1)COc1c-2cc2ccc(O)cc2c1-c1ccccc1Cl |
| 100 | CCCCCC[C@H](C)Oc1ccc(-c2ccc(O)cc2)cc1 |
| 134 to 135 | O=[N+]([O-])c1ccc(OCCCO)cc1CS(=O)(=O)c1cccc2ccccc12 |
| > 300 | O=c1nc(-c2ccc3c(c2)OCCO3)c2ccc3c(c2[nH]1)OCO3 |
| 256 to 259 | COc1ccc(-c2nnc3c4ccccc4c(Nc4cccc(-c5nnn(C)n5)c4)nn23)cc1 |
| 177 to 178 | COc1ccc(-c2nc(CC(=O)O)c(-c3ccco3)o2)cc1 |
| 110 to 111 | Cc1nccn1-c1nc(-c2ccc(Cl)cc2)c(CCCOc2ccccc2O)o1 |
| 99 | CCP(=O)(O)c1cc(Oc2ccc(C(F)(F)F)cc2Cl)ccc1[N+](=O)[O-] |
| 248 to 250 | COc1ccc(S(=O)(=O)Nc2cccnc2Nc2ccc(C(=O)O)cc2)cc1 |

| melting point [°C] | Structure (SMILES) |
| --- | --- |
| 238 to 239 | O=C1SCC(O)=C1Cc1ccc2ccccc2c1 |
| 217 to 219 | COn1c(C(C)C)nc2c(N)nc3ccccc3c21 |
| > 300 | COc1ccc(-c2[nH]nc3c2C(=O)c2c(NC(=O)CCNc4ccncc4)cccc2-3)cc1 |
| 65 | CCc1ccc(-c2ccc(CCc3ccc(C)cc3)cc2)c(F)c1 |
| 177 to 178 | N#CN=C(Nc1cccnc1)NC(NC(=O)c1ccc(Cl)cc1)C(F)(F)C(F)(F)F (stereo not drawn) |
| 167 | Cc1cc(C#N)cc(C(=O)Nc2cccc(C(F)(F)F)c2)n1 |
| 184 to 188 | Cc1ccc(S(=O)(=O)Nc2cccc3c2Nc2ccc(O)cc2CO3)s1 |
| 171 to 175 | CCCC(=O)c1cnc2c(COC(=O)c3ccc(OC)cc3)cccc2c1Nc1ccc(O)cc1C |
| 119 to 120 | COc1cc(OC)nc(Oc2cccc3c2C(=O)OC3OC(C)=O)n1 (stereo not drawn) |
| 80 to 81 | Cc1oc(-c2ccco2)nc1COc1ccc(COc2nn(Cc3ccc(OCc4nc(-c5ccco5)oc4C)cc3)cc2CO)cc1 |
| 59 to 61 | COc1ccc(Cc2sc3ccccc3c2-c2ccc(-c3ccc(OC(Cc4ccccc4)C(=O)O)cc3)cc2)cc1OC (stereo not drawn) |
| > 250 | Cc1cccc(-c2cc(C(F)(F)F)cc3c2OC(CN)C3)c1 (stereo not drawn) |
| 173 to 175 | Cc1ccc(-c2nc3ccc(N(C)C)cn3c2CNC(=O)CC(C)C)cc1 |
| 89 to 90 | CC(=NOc1ccc(Cl)cc1)c1ccc(C(F)(F)F)cc1NS(=O)(=O)C(F)(F)F |
| 80 to 90 | Cc1noc(NS(=O)(=O)c2ccccc2-c2ccc(-c3ncco3)cc2CN(CC(F)(F)F)C(C)C)c1C |
| 214 to 217 | O=C(O)c1cc(-n2c(-c3ccc(O)cc3)cc3c2CCCC3)ccc1O |
| 243 to 245 | Cc1cc(-c2c(-c3ccc(S(N)(=O)=O)cc3)cnn(-c3ccc(F)c(Cl)c3)c2=O)ccc1F |
| 96.5 to 98 | CN(C)/C=C/C(=O)c1ccc(C(F)(F)F)cc1 |
| 255 to 257 | O=C(NC(Cc1ccc(OCc2ccc(F)cc2)cc1)C(=O)O)c1cn2ccc(-c3ccc(Cl)cc3)cc2n1 (stereo not drawn) |
| 145 to 147 | CC(C)(C)OC(=O)N1C[C@H](Oc2nccc(NC(=O)c3ccccc3)n2)C[C@@H]1C(=O)OC(c1ccccc1)c1ccccc1 |
